Here are results for 21 compounds from PubChem BioAssay AID248 (DTP/NCI, 2004).

Molecules are shown by their SMILES. Several values for one entry are separate records, joined by “and”; a condition that tells them apart may be missing. Equal values may be shown once. Toxic doses and inconclusive results are not listed. Numbered stars: 1 amine (or outer) side, 2 acyl side, 3 side chain; on linkers, the order of the positions; unused ones are H or OH. Bridge positions count the residues as written; N and C are the ends. Square brackets hold non-standard residues; d marks the D form. Peptide text beside a SMILES is read from it. * marks the point of attachment. X3 = CC(C)C(C)C(C(=O)[*:2])N(C)[*:1]; Picolinoyl(3-OH) = O=C(c1ncccc1O)*; NMePhg = CN[CH](C(=O)O)c1ccccc1; Hyp = O=C(O)[CH]1C[CH](O)CN1; Sar = CNCC(=O)O

This assay relates to L1210 leukemia ip in BDF1 mice, survival T/C. Kind of assay: NCI In Vivo Anticancer Drug Screen. Data for tumor model L1210 Leukemia (intraperitoneal) in B6D2F1 (BDF1) mice. Conditions: endpoint: mean survival time, higher = longer survival. The essentials: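 Ratio derived from survival: compound-dosed mice over vehicle-dosed mice, all bearing a transplantable tumor.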
Setting [1] is: dose: 100.0 mg/kg/injection, schedule: Q01DX009 (ip), vehicle: saline with Tween-80.
Where [2] appears, read: dose: 200.0 mg/kg/injection, schedule: Q01DX009 (ip), vehicle: saline with Tween-80.
Where [3] appears, read: dose: 100.0 mg/kg/injection, schedule: Q01DX001 (ip), vehicle: saline.
The mark [4] stands for this setting: dose: 200.0 mg/kg/injection, schedule: Q01DX001 (ip), vehicle: saline.
The mark [5] stands for this setting: dose: 400.0 mg/kg/injection, schedule: Q01DX001 (ip), vehicle: saline.
The mark [6] stands for this setting: dose: 100.0 mg/kg/injection, schedule: Q01DX001 (ip), vehicle: carboxymethylcellulose (CMC).
Setting [7] is: dose: 200.0 mg/kg/injection, schedule: Q01DX001 (ip), vehicle: carboxymethylcellulose (CMC).
Where [8] appears, read: dose: 400.0 mg/kg/injection, schedule: Q01DX001 (ip), vehicle: carboxymethylcellulose (CMC).
The mark [9] stands for this setting: dose: 100.0 mg/kg/injection, schedule: Q01DX009 (ip), vehicle: Klucel (hydroxypropylcellulose) (HPC).
The mark [10] stands for this setting: dose: 200.0 mg/kg/injection, schedule: Q01DX009 (ip), vehicle: Klucel (hydroxypropylcellulose) (HPC).
Setting [11] is: dose: 100.0 mg/kg/injection, schedule: Q04DX003 (ip), vehicle: Klucel (hydroxypropylcellulose) (HPC).
Where [12] appears, read: dose: 200.0 mg/kg/injection, schedule: Q04DX003 (ip), vehicle: Klucel (hydroxypropylcellulose) (HPC).
The mark [13] stands for this setting: dose: 400.0 mg/kg/injection, schedule: Q04DX003 (ip), vehicle: Klucel (hydroxypropylcellulose) (HPC).
Setting [14] is: dose: 100.0 mg/kg/injection, schedule: Q04DX003 (ip), vehicle: saline with Tween-80.
Where [15] appears, read: dose: 200.0 mg/kg/injection, schedule: Q04DX003 (ip), vehicle: saline with Tween-80.
Setting [16] is: dose: 400.0 mg/kg/injection, schedule: Q04DX003 (ip), vehicle: saline with Tween-80.

In the case of `CC(C)CC1NC(=O)C(NC(=O)c2ncccc2O)C(C)OC(=O)C(c2ccccc2)N(C)C(=O)C(C)NC(=O)C(C(C)C(C)C)N(C)C(=O)CN(C)C(=O)C2CC(O)CN2C1=O` (centres undefined) ({Picolinoyl(3-OH)}-TL[Hyp][Sar][X3]A[NMePhg]; ester 1-C; configuration not given here), the T/C by setting is: (dose: 5.3 mg/kg/injection, schedule: Q01DX Z (ip), vehicle: saline) 100 % of control; (dose: 8.0 mg/kg/injection, schedule: Q01DX Z (ip), vehicle: saline) 100 % of control; (dose: 12.0 mg/kg/injection, schedule: Q01DX Z (ip), vehicle: saline) 103 % of control; (dose: 18.0 mg/kg/injection, schedule: Q01DX Z (ip), vehicle: saline) 103 % of control and 109 % of control; (dose: 36.0 mg/kg/injection, schedule: Q01DX Z (ip), vehicle: saline) 97 % of control; (dose: 72.0 mg/kg/injection, schedule: Q01DX Z (ip), vehicle: saline) 103 % of control. For the setting “dose: 144.0 mg/kg/injection, schedule: Q01DX Z (ip), vehicle: saline”, the T/C was 106 % of control.
`COc1cccc2c1C(=O)c1c(O)c3c(c(O)c1C2=O)C[C@@](O)(C(=O)COC(=O)c1cccnc1)C[C@@H]3OC1CC(N)C(O)C(C)O1` (some centres undefined): the T/C (dose: 1.6 mg/kg/injection, schedule: Q01DX009 (ip), vehicle: saline) was 153 % of control and the T/C (dose: 2.4 mg/kg/injection, schedule: Q01DX009 (ip), vehicle: saline) is 153 % of control.
Turning to `COC(=O)C(CC(C)C)NC(=O)CN(C)C(=O)OCc1ccccc1` (centres undefined), the T/C was 105 % of control (dose: 75.0 mg/kg/injection, schedule: Q04DX003 (sc), vehicle: olive oil, sesame oil, peanut oil); 103 % of control (dose: 150.0 mg/kg/injection, schedule: Q04DX003 (sc), vehicle: olive oil, sesame oil, peanut oil); 108 % of control (dose: 300.0 mg/kg/injection, schedule: Q04DX003 (sc), vehicle: olive oil, sesame oil, peanut oil).
As to `O=c1[nH]c(=O)c2[nH]cnc2[nH]1`, the T/C runs as follows: (dose: 50.0 mg/kg/injection, schedule: Q01DX009 (ip), vehicle: saline with Tween-80) 100 % of control; under setting [1], 94 % of control; under setting [2], 90 % of control.
Consider `N#CSCCN1C(=O)C2C3CCC(O3)C2C1=O` (centres undefined), for which the T/C runs as follows: (dose: 6.25 mg/kg/injection, schedule: Q04DX002 (ip), vehicle: saline with Tween-80) 94 % of control; (dose: 12.5 mg/kg/injection, schedule: Q04DX002 (ip), vehicle: saline with Tween-80) 97 % of control.
`Cc1nc2ncnc(NCc3ccc(Cl)cc3Cl)c2[nH]1`: the T/C is 97 % of control under setting [3], 89 % of control under setting [4] and 108 % of control under setting [5].
`CC(=O)c1ccc(Cl)cc1`: the T/C runs as follows: under setting [6], 91 % of control; under setting [7], 91 % of control; under setting [8], 97 % of control.
In the case of `O=[N+]([O-])c1cc(Br)c(Br)cc1Br`, the T/C by setting is: (dose: 100.0 mg/kg/injection, schedule: Q01DX001 (ip), vehicle: Klucel (hydroxypropylcellulose) (HPC)) 106 % of control; under setting [9], 97 % of control; (dose: 200.0 mg/kg/injection, schedule: Q01DX001 (ip), vehicle: Klucel (hydroxypropylcellulose) (HPC)) 101 % of control; under setting [10], 96 % of control; (dose: 400.0 mg/kg/injection, schedule: Q01DX001 (ip), vehicle: Klucel (hydroxypropylcellulose) (HPC)) 101 % of control.
For the compound `CNC(=O)Oc1ccc(C(=O)OCCO)cc1`, the T/C under setting [3] is 90 % of control, the T/C under setting [4] was 88 % of control and the T/C under setting [5] was 88 % of control.
In the case of `Clc1cnc[nH]1`, the T/C is, setting by setting: (dose: 25.0 mg/kg/injection, schedule: Q01DX009 (ip), vehicle: saline) 105 % of control; (dose: 50.0 mg/kg/injection, schedule: Q01DX009 (ip), vehicle: saline) 108 % of control; under setting [3], 102 % of control; (dose: 100.0 mg/kg/injection, schedule: Q01DX009 (ip), vehicle: saline) 105 % of control; under setting [4], 110 % of control; under setting [5], 102 % of control.
As for `CC(C)(c1cc(Br)c(O)c(Br)c1)c1cc(Br)c(O)c(Br)c1`, the T/C was 93 % of control under setting [9]; 100 % of control under setting [11]; 94 % of control under setting [10]; 92 % of control under setting [12]; 91 % of control (dose: 400.0 mg/kg/injection, schedule: Q01DX009 (ip), vehicle: Klucel (hydroxypropylcellulose) (HPC)); 103 % of control under setting [13].
On to `Cc1ccc(NC(=O)N(CCO)C2CCCCC2)c([N+](=O)[O-])c1`, for which the T/C is 87 % of control under setting [11], 98 % of control under setting [12] and 96 % of control under setting [13].
`CC(=O)OC1Cc2ccccc21` (centres undefined): the T/C under setting [1] was 96 % of control; the T/C under setting [14] is 95 % of control; the T/C under setting [2] was 109 % of control; the T/C under setting [15] is 96 % of control; the T/C (dose: 400.0 mg/kg/injection, schedule: Q01DX009 (ip), vehicle: saline with Tween-80) was 100 % of control; the T/C under setting [16] was 98 % of control.
On to `C=C(C)C1(CCCCC)C(=O)NC(=O)NC1=O`, for which the T/C (dose: 75.0 mg/kg/injection, schedule: Q01DX001 (ip), vehicle: saline) is 101 % of control and the T/C (dose: 150.0 mg/kg/injection, schedule: Q01DX001 (ip), vehicle: saline) was 98 % of control.
As for `CC1C2C=CC(C2)C1C(=O)O` (centres undefined), the T/C was 98 % of control under setting [6]; 96 % of control and 97 % of control and 88 % of control under setting [14]; 96 % of control under setting [7]; 89 % of control and 92 % of control and 91 % of control under setting [15]; 96 % of control under setting [8]; 99 % of control and 97 % of control under setting [16].
For `CC(C)=CCc1c(N)nc(N)[nH]c1=O`, the T/C was 98 % of control (dose: 100.0 mg/kg/injection, schedule: Q04DX002 (ip), vehicle: Klucel (hydroxypropylcellulose) (HPC)); 98 % of control (dose: 200.0 mg/kg/injection, schedule: Q04DX002 (ip), vehicle: Klucel (hydroxypropylcellulose) (HPC)); 106 % of control (dose: 400.0 mg/kg/injection, schedule: Q04DX002 (ip), vehicle: Klucel (hydroxypropylcellulose) (HPC)).
With `COC(=O)CCC(=O)c1cc(OC)c2cc3ccccc3cc2c1OC`, the T/C is, setting by setting: (dose: 100.0 mg/kg/injection, schedule: Q01DX001 (ip), vehicle: other) 96 % of control; (dose: 200.0 mg/kg/injection, schedule: Q01DX001 (ip), vehicle: other) 96 % of control; (dose: 400.0 mg/kg/injection, schedule: Q01DX001 (ip), vehicle: other) 100 % of control.
Regarding `CN(C)CCCCN(C)CCCN(C)C`, the T/C under setting [3] was 114 % of control, the T/C under setting [4] was 102 % of control and the T/C under setting [5] is 98 % of control.
Take `C=CCNC(=O)CS(=O)(=O)c1ccc(C)cc1`: the T/C is 94 % of control under setting [14], 100 % of control under setting [15] and 96 % of control under setting [16].
As for `C#C[C@]1(O)CC[C@H]2[C@@H]3CCc4cc(O)ccc4[C@H]3CC[C@@]21C`, the T/C is 96 % of control (dose: 62.5 mg/kg/injection, schedule: Q04DX003 (sc), vehicle: steriod suspending solution); 100 % of control (dose: 125.0 mg/kg/injection, schedule: Q04DX003 (sc), vehicle: steriod suspending solution); 97 % of control (dose: 250.0 mg/kg/injection, schedule: Q04DX003 (sc), vehicle: steriod suspending solution); 99 % of control (dose: 500.0 mg/kg/injection, schedule: Q04DX003 (sc), vehicle: steriod suspending solution).
For `COc1cc2c(cc1Cl)nc1c(=O)[nH]c(=O)nc-1n2CCN1CCCC1`, the T/C is, setting by setting: (dose: 8.7 mg/kg/injection, schedule: Q01DX Z (ip), vehicle: methylcellulose (MC)) 97 % of control; (dose: 17.5 mg/kg/injection, schedule: Q01DX Z (ip), vehicle: methylcellulose (MC)) 94 % of control; (dose: 70.0 mg/kg/injection, schedule: Q01DX Z (ip), vehicle: methylcellulose (MC)) 114 % of control.
